Measurements reported in ChEMBL document CHEMBL1158744, “Leptolide, a new furanocembranolide diterpene from Leptogorgia alba” (J Nat Prod, 2005).

Test system: Plasmodium falciparum
Assay: Antiplasmodial activity against Plasmodium falciparum W2 after 48 hrs in PicoGreen microfluorimetry
Assay type: functional, organism-based
Details: W2, 48 h

Row | SMILES | IC50 [µM]
1 | C=C(C)[C@H]1CC2=C(C(=O)OC)C=C(O2)[C@H]2O[C@]2(C)C[C@H]2C=C(C(=O)O2)[C@H](OC(C)=O)C1 | 109
2 | C=C(C)[C@@H]1CCC2=C[C@@H](OC2=O)[C@@H](C(=C)C)C2=CC(C(=O)OC)=C(C1)O2 [DEOXYPSEUDOPTEROLIDE] | 50
3 | C=C(C)[C@H]1CC2=C(C(=O)OC)C=C(O2)[C@H]2O[C@]2(C)C[C@@H]2OC(=O)[C@]3(O[C@@H]23)[C@H](OC(C)=O)C1 [LOPHOLIDE] | 105
4 | C=C(C)[C@@H]1CC2=C(C=O)C=C(O2)[C@@H]2O[C@@]2(C)C[C@H]2OC(=O)[C@@]3(O[C@H]23)[C@@H](OC(C)=O)C1 [LOPHOTOXIN] | 74
5 | C=C(C)[C@H]1CCC2=C[C@@H](C[C@]3(C)O[C@H]3C3=CC(C=O)=C(C1)O3)OC2=O [PUKALIDE ALDEHYDE] | 134
